According to publication PMC11556721, “A novel esterase regulates Klebsiella pneumoniae hypermucoviscosity and virulence” (PLOS Pathogens, 2024):

Assays:
[1] = tested on: T1, rKpACE (KpACE, Klebsiella pneumoniae Acetylated CPS Esterase); assay: acetylesterase assay, Michaelis-Menten fit; format: biochemical; conditions: pH 7.4
T1 construct: signal peptide (1-21) removed; N-terminal 6xHis tag; pET-28a, E. coli BL21(DE3)

[2] = target: recombinant KpACE (Klebsiella pneumoniae Acetylated CPS Esterase) (Klebsiella pneumoniae ATCC43816); assay: SEC; Superdex 200; rKpACE peak at 14.38 mL (75.6 kDa); predicted monomer 43.1 kDa

Molecule	Km [1] [µM]	stoichiometry N [2]
CC(=O)Oc1ccc2c(C)cc(=O)oc2c1 [4-MU-Ac, 4-methylumbelliferyl acetate]	160 ± 30	–
recombinant KpACE (Klebsiella pneumoniae Acetylated CPS Esterase) (enzyme)	–	2
